pIC50: −log10 of the molar value. Active and inactive are the calls of the source. No cut-off for these calls is given here.
How the values were obtained:
Staphylococcus aureus = assay: Antibacterial activity against Staphylococcus aureus ATCC 29213 assessed as growth inhibition by broth microdilution method; assay type: functional
SF-268 = assay: Cytotoxicity against human SF268 cells by SRB assay; assay type: functional, cell-based
MCF7 = assay: Cytotoxicity against human MCF7 cells by SRB assay; assay type: functional, cell-based
Escherichia coli = assay: Antibacterial activity against Escherichia coli ATCC 25922 assessed as growth inhibition by broth microdilution method; assay type: functional
HUVEC [1] = assay: Antimigratory activity in HUVEC at 17.1 uM up to 72 hrs by scratch wound healing assay relative to DMSO-treated control; assay type: functional, cell-based; settings: Homo sapiens
[2] = tested on: Radical scavenging activity; assay: Antioxidant activity of the compound assessed as DPPH radical scavenging activity after 30 mins by spectrophotometric analysis; assay type: functional
NCI-H460 = assay: Cytotoxicity against human NCI-H460 cells by SRB assay; assay type: functional, cell-based
Bacillus thuringiensis = assay: Antibacterial activity against Bacillus thuringiensis SCSIO BT01 assessed as growth inhibition by broth microdilution method; assay type: functional
Candida albicans = assay: Antifungal activity against Candida albicans ATCC 10231 assessed as growth inhibition by broth microdilution method; assay type: functional
Bacillus subtilis = assay: Antibacterial activity against Bacillus subtilis SCSIO BS01 assessed as growth inhibition by broth microdilution method; assay type: functional
HUVEC [3] = assay: Antimigratory activity in HUVEC at 11.8 uM up to 72 hrs by scratch wound healing assay relative to DMSO-treated control; assay type: functional, cell-based; settings: Homo sapiens

Row | Structure (SMILES) | MIC (Staphylococcus aureus) [µg/mL] | pIC50 (SF-268) | pIC50 (MCF7) | MIC (Escherichia coli) [µg/mL] | Activity (HUVEC [1]) | Activity [2] | pIC50 (NCI-H460) | MIC (Bacillus thuringiensis) [µg/mL] | MIC (Candida albicans) [µg/mL] | MIC (Bacillus subtilis) [µg/mL] | Activity (HUVEC [3])
1 | C/C=C/C=C/C[C@@H]1C[C@H](O)[C@H]2[C@@H]3/C(C)=C/[C@H]4C=C[C@@H](O)[C@@H](O)[C@@H]4/C(C)=C/C=C\[C@@H]3C(=O)N12 | > 128 | < 4.00 | < 4.00 | > 128 | inactive | inactive | < 4.00 | > 128 | > 128 | > 128 | 
2 | C/C=C/C=C/C[C@@H]1C/C=C/C=C(C)/C=C/C=C\[C@@H](OC(C)=O)[C@@H](OC(C)=O)/C=C(C)/C=C/C=C/C(=O)N1 | > 128 | 4.63 | 4.81 | > 128 |  |  | 4.25 | > 128 | > 128 | > 128 | 
3 | C/C=C/C=C/C[C@@H]1C[C@@H]2/C=C/C(C)=C/[C@H]3C=C[C@@H](O)[C@@H](O)[C@@H]3/C(C)=C/C=C/[C@H]2C(=O)N1 | > 128 | < 4.00 | < 4.00 | > 128 |  | inactive | < 4.00 | > 128 | > 128 | > 128 | 
4 | C/C=C/C=C/C[C@@H]1C/C=C/C=C(C)/C=C/C=C\[C@@H](O)[C@@H](O)/C=C(C)/C=C/C=C/C(=O)N1 | > 128 | < 4.00 | < 4.00 | > 128 |  | inactive | < 4.00 | > 128 | > 128 | > 128 | inactive
